Literature values in patent publication US6627427B1, “Heterologous production of 15-methyl-6-deoxyerthronolide B” (Kosan Biosciences, Inc., priority 1999, dated 2003).

Tests used:
[1] = system: Gram-positive pathogens; details: including those carrying inducible MLS resistance and many S. pneumoniae and S. pyogenes strains carrying constitutive MLS resistance
[2] = statement with reference to PCT publications

SMILES | activity against Gram-positive pathogens [1] | antibiotic activity [2]
CC[C@H]1OC(=O)[C@H](C)C(=O)[C@H](C)[C@@H](O[C@@H]2O[C@H](C)C[C@H](N(C)C)[C@H]2O)[C@](C)(OC/C=C/c2cnc3ccccc3c2)C[C@@H](C)C(=O)[C@H](C)[C@H]2NC(=O)O[C@@]21C [ABT-773] | excellent activity | –
CC[C@H]1OC(=O)[C@H](C)C(=O)[C@H](C)[C@@H](O[C@@H]2O[C@H](C)C[C@H](N(C)C)[C@H]2O)[C@](C)(OC)C[C@@H](C)C(=O)[C@H](C)[C@H]2N(CCCCn3cnc(-c4cccnc4)c3)C(=O)O[C@]12C [HMR 3647] | excellent activity | –
CCC[C@H]1OC(=O)[C@H](C)[C@@H](O[C@@H]2C[C@@](C)(OC)[C@@H](O)[C@H](C)O2)[C@H](C)[C@@H](O[C@@H]2O[C@H](C)C[C@H](N(C)C)[C@H]2O)[C@](C)(O)C[C@@H](C)C(=O)[C@H](C)[C@@H](O)[C@]1(C)O [Propyl erythromycin A, 15-methylerythromycin A] | – | potent antibiotic activity
